This note sets out measurements from ChEMBL document CHEMBL1201862, “PubChem BioAssay data set” (2004).

Among the test systems are SR; NCI-H522; OVCAR-4; UACC-257; LOX IMVI; HL-60; CAKI-1; U-251; MDA-N; MOLT-4; MCF7; SNB-19; HCT-15; COLO 205; TK-10; A498; RPMI-8226; UO-31; K562; KM12.
Common to all, as to test: NCI anticancer screen, dose series, 48 h

Structures are written as SMILES.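 Five compound concentrations were applied to cells in 96-well plates for 48 hours; endpoints were derived by simple linear interpolation of the resulting dose-response curve. Abbreviation: GI50, concentration required for 50% inhibition of growth.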 Calls of active or inactive are those of the source. Cut-off read from the data, not from the text of the source: active = GI50 up to about 1.1 µM and inactive = higher. Bounds are passed on as bounds.

As to `C(=N\c1cnc2ccccc2c1)/c1ccc2ccccc2n1`, the GI50 was 24 µM (inactive) in the assay on SR; > 100 µM (inactive) in the assay on NCI-H522; > 100 µM (inactive) in the assay with OVCAR-4; > 100 µM (inactive) in the assay on UACC-257; 72.9 µM (inactive) in the assay on LOX IMVI; 53.3 µM (inactive) in the assay with HL-60. Further, the GI50 with CAKI-1 is > 100 µM (inactive); in the assay with U-251, 67.5 µM (inactive); in the assay on MDA-N it was > 100 µM (inactive); in the assay on MOLT-4 it was 50 µM (inactive); in the assay with MCF7 it was 43 µM (inactive); in the assay with SNB-19, > 100 µM (inactive). For the same compound, the GI50 in the assay with HCT-15 is 55.6 µM; in the assay on COLO 205, > 100 µM (inactive); with TK-10 it was > 100 µM (inactive); in the assay on A498, > 100 µM (inactive); in the assay on RPMI-8226, 29.2 µM (inactive); in the assay on UO-31, > 100 µM (inactive). Moreover, the GI50 with K562 is 52 µM (inactive); with KM12, > 100 µM (inactive).

In the case of `COC(C)(C)[C@@H](O)[C@H]1C[C@H](C)[C@@]2(CC[C@]3(C)[C@@H]2CC[C@@H]2[C@@]4(C)CC[C@@H](OC(C)=O)C(C)(C)[C@@H]4C[C@@H](OC4OC(COC(C)=O)C(O)C(O)C4O)[C@]23C)O1` (stereo not given in full), the GI50 is 2.52 µM (inactive) in the assay on SR; 4.04 µM (inactive) in the assay with NCI-H522; 3.48 µM (inactive) in the assay with OVCAR-4; 6.44 µM (inactive) with UACC-257; 3.9 µM (inactive) in the assay with LOX IMVI; 2.1 µM (inactive) in the assay with HL-60. The GI50 with CAKI-1 was 8.43 µM (inactive); in the assay with U-251, 5.7 µM (inactive); with MDA-N it was 5.43 µM (inactive); with MOLT-4 it was 2.32 µM (inactive); in the assay on MCF7 it was 2.86 µM (inactive); with SNB-19 it was 8.73 µM (inactive). The GI50 in the assay with HCT-15 was 2.39 µM; in the assay on COLO 205, 2.38 µM (inactive); with TK-10, 12.2 µM (inactive); with A498 it was 6.41 µM (inactive); in the assay on RPMI-8226, 2.42 µM (inactive); in the assay with UO-31, 4.67 µM (inactive). Besides, the figures for the GI50 in the assay with K562 and with KM12 were 3.79 µM (inactive) and 1.79 µM (inactive), respectively.

Turning to `CC(C)(Cl)C(Cl)CC/C(CBr)=C(\Cl)CBr` (stereo not given), the GI50 in the assay on SR is 0.443 µM (active); with NCI-H522, 0.55 µM (active); in the assay with OVCAR-4 it was 1.51 µM (inactive); with UACC-257, 2.08 µM (inactive); in the assay with LOX IMVI, 0.209 µM (active); in the assay with HL-60, 0.32 µM (active). Moreover, the GI50 in the assay with CAKI-1 was 2.62 µM (inactive); in the assay on U-251 it was 1.83 µM (inactive); with MDA-N, 1.81 µM (inactive); with MOLT-4, 0.473 µM (active); in the assay with MCF7, 2.49 µM (inactive); in the assay with SNB-19 it was 11.1 µM (inactive). Moreover, the GI50 in the assay with HCT-15 was 1.75 µM; in the assay on COLO 205, 2.62 µM (inactive); in the assay on TK-10 it was 1.95 µM (inactive); with A498, 19.2 µM (inactive); in the assay with RPMI-8226, 0.706 µM (active); in the assay on UO-31, 3.08 µM (inactive). Also, the GI50 in the assay with K562 is 0.586 µM (active); with KM12, 2.08 µM (inactive).

In the case of `C=C(CCOC)CCC1CCCCC(=C)[C@H]1OC(C)=O` (stereo not given in full), the GI50 in the assay with SR is 52.5 µM (inactive); in the assay with NCI-H522, 41.8 µM (inactive); in the assay with OVCAR-4, > 100 µM (inactive); in the assay on UACC-257 it was > 100 µM (inactive); in the assay on LOX IMVI, > 100 µM (inactive); in the assay with HL-60, 50.7 µM (inactive). Also, the GI50 with CAKI-1 was > 100 µM (inactive); with U-251, > 100 µM (inactive); in the assay on MDA-N it was > 100 µM (inactive); in the assay with MOLT-4, 59.7 µM (inactive); with MCF7 it was > 100 µM (inactive); in the assay with SNB-19 it was > 100 µM (inactive). For the same compound, the GI50 in the assay on HCT-15 is > 100 µM; in the assay on COLO 205, > 100 µM (inactive); in the assay with TK-10, > 100 µM (inactive); in the assay on A498, > 100 µM (inactive); in the assay with RPMI-8226, 51.1 µM (inactive); with UO-31 it was > 100 µM (inactive). Besides, the GI50 in the assay with K562 and in the assay with KM12 was > 100 µM (inactive) each time.

Consider `C(=C\c1nccs1)/c1cccc(/C=C/c2nccs2)n1`, for which the GI50 in the assay with SR, in the assay with NCI-H522, in the assay with OVCAR-4, in the assay on UACC-257, in the assay on LOX IMVI and in the assay on HL-60 was > 50 µM (inactive) throughout. Besides, the GI50 in the assay with CAKI-1 is > 50 µM (inactive); with U-251, 34.8 µM (inactive); in the assay on MDA-N, > 50 µM (inactive); with MOLT-4, 38.4 µM (inactive); with MCF7, 18.8 µM (inactive); in the assay on SNB-19 it was > 50 µM (inactive). Moreover, the GI50 in the assay on HCT-15 is > 50 µM; in the assay with COLO 205 it was > 50 µM (inactive); in the assay with TK-10, > 50 µM (inactive); with A498, > 50 µM (inactive); with RPMI-8226, > 50 µM (inactive); in the assay with UO-31, > 50 µM (inactive). For the same compound, the GI50 in the assay with K562 and with KM12 was > 50 µM (inactive) in each case.

Take `Cc1ccc(S(=O)(=O)N/N=C/C2(c3ccccc3)c3ccccc3-c3ccccc32)cc1`: the GI50 with SR is 7.45 µM (inactive); in the assay with NCI-H522, 13 µM (inactive); with OVCAR-4 it was 10.3 µM (inactive); in the assay on UACC-257, 15.6 µM (inactive); in the assay with LOX IMVI, 12.7 µM (inactive); in the assay with HL-60, > 100 µM (inactive). For the same compound, the GI50 in the assay with CAKI-1 was 12.6 µM (inactive); in the assay on U-251, 11.8 µM (inactive); in the assay with MDA-N, 4.28 µM (inactive); with MOLT-4, 7.18 µM (inactive); with MCF7 it was 6.98 µM (inactive); in the assay with SNB-19 it was 18.7 µM (inactive). Also, the GI50 is 9.27 µM in the assay with HCT-15; 3.62 µM (inactive) with COLO 205; 20.9 µM (inactive) in the assay on TK-10; 18.6 µM (inactive) in the assay with A498; 7.45 µM (inactive) with RPMI-8226; 5.82 µM (inactive) with UO-31. Moreover, the GI50 in the assay with K562 was 4.56 µM (inactive); with KM12 it was 7.76 µM (inactive).

As to `CC(C)Cc1ccc(C(C)/C=C2\CCC(CN3CCOCC3)C2=O)cc1` (stereo not given), the GI50 was 2.08 µM (inactive) in the assay with SR; 5.62 µM (inactive) in the assay on NCI-H522; 17.7 µM (inactive) in the assay with OVCAR-4; 7.14 µM (inactive) in the assay with UACC-257; 2.33 µM (inactive) in the assay with LOX IMVI; 2.69 µM (inactive) in the assay with HL-60. The GI50 with CAKI-1 was 18 µM (inactive); with U-251 it was 13.5 µM (inactive); in the assay with MDA-N, 12.1 µM (inactive); in the assay with MOLT-4, 1.64 µM (inactive); with MCF7, 4.31 µM (inactive); with SNB-19 it was 8.51 µM (inactive). Besides, the GI50 in the assay with HCT-15 is 2.94 µM; with COLO 205, 9.44 µM (inactive); with TK-10, 5.82 µM (inactive); in the assay on A498, 12.5 µM (inactive); with RPMI-8226 it was 0.665 µM (active); in the assay with UO-31, 8.73 µM (inactive). Further, the GI50 is 1.92 µM (inactive) in the assay on K562 and 5.47 µM (inactive) in the assay on KM12.

`[N-]=[N+]=Nc1c([N+](=O)[O-])c(Cl)nc2ccccc12`: the GI50 was 0.604 µM (active) in the assay with SR; 0.293 µM (active) in the assay with NCI-H522; 1.9 µM (inactive) in the assay with OVCAR-4; 1.69 µM (inactive) in the assay with UACC-257; 1.59 µM (inactive) in the assay with LOX IMVI; 0.119 µM (active) in the assay with HL-60. Further, the GI50 was 0.971 µM (active) with CAKI-1; 5.96 µM (inactive) in the assay with U-251; 2.38 µM (inactive) with MDA-N; 0.587 µM (active) in the assay on MOLT-4; 1.54 µM (inactive) in the assay with MCF7; 14.4 µM (inactive) in the assay on SNB-19. Further, the GI50 in the assay on HCT-15 is 1.83 µM; in the assay on COLO 205, 1.74 µM (inactive); in the assay with TK-10, 2.25 µM (inactive); in the assay on A498, 13.7 µM (inactive); with RPMI-8226, 1.77 µM (inactive); with UO-31, 0.632 µM (active). In addition, the GI50 is 0.463 µM (active) with K562 and 7.16 µM (inactive) in the assay with KM12.

For `CC1(C)OC[C@@H](O)[C@H](C#N)CO1`, the GI50 with SR, in the assay with NCI-H522, in the assay on OVCAR-4, in the assay with UACC-257, in the assay with LOX IMVI and with HL-60 was > 100 µM (inactive) throughout. Also, the GI50 in the assay on CAKI-1, in the assay with U-251, in the assay with MDA-N, with MOLT-4, with MCF7 and in the assay on SNB-19 was > 100 µM (inactive) in each case. Also, the GI50 in the assay on HCT-15 is > 100 µM; in the assay on COLO 205, > 100 µM (inactive); in the assay with TK-10, > 100 µM (inactive); with A498 it was > 100 µM (inactive); with RPMI-8226, > 100 µM (inactive); in the assay with UO-31 it was > 100 µM (inactive). Also, the GI50 in the assay on K562 and in the assay with KM12 was > 100 µM (inactive) each time.

As for `CC(C)(C)c1ccc(S(=O)(=O)N2C(c3cccc(C4CC[C@@H](C(=O)O)N4S(=O)(=O)c4ccc(C(C)(C)C)cc4)c3)CC[C@H]2C(=O)O)cc1` (stereo not given in full), the GI50 is 33.1 µM (inactive) with SR; 38.7 µM (inactive) in the assay with NCI-H522; 54.8 µM (inactive) with OVCAR-4; 53 µM (inactive) with UACC-257; 79.4 µM (inactive) in the assay on LOX IMVI; 43.5 µM (inactive) with HL-60. Besides, the GI50 is 42.5 µM (inactive) in the assay with CAKI-1; 38.9 µM (inactive) with U-251; 55.2 µM (inactive) in the assay on MDA-N; 33 µM (inactive) in the assay with MOLT-4; 44 µM (inactive) with MCF7; 59.3 µM (inactive) with SNB-19. Further, the GI50 in the assay with HCT-15 is 43.2 µM; with COLO 205 it was 34 µM (inactive); with TK-10, 65.5 µM (inactive); in the assay with A498 it was > 100 µM (inactive); in the assay with RPMI-8226 it was 34.5 µM (inactive); with UO-31 it was 33.5 µM (inactive). The GI50 is 37.5 µM (inactive) in the assay with K562 and 53.8 µM (inactive) in the assay on KM12.
